From ChEMBL document CHEMBL5696442, “Discovery of type II inhibitors of TGFβ-activated kinase 1 (TAK1) and mitogen-activated protein kinase kinase kinase kinase 2 (MAP4K2)” (J Med Chem, 2015)
The source made the active and inactive calls. No cut-off for these calls is given here.

Key:
[1] = target: Phosphatidylinositol 4,5-bisphosphate 3-kinase catalytic subunit beta isoform (Homo sapiens) (UniProt P42338); test: Inhibition of PIK3CB ATP labeling site harbouring VFGEDSVGVIFKNGDDLRQDMLTLQMLR in human Huh-7 cells at 1 uM by KiNativ Profiling analysis relative to control; type: cell-based
[2] = target: 5'-AMP-activated protein kinase catalytic subunit alpha-2 (Homo sapiens) (UniProt P54646); test: Inhibition of AMPKa2 Lys1 labeling site in human Huh-7 cells at 1 uM by KiNativ Profiling analysis relative to control; type: cell-based
[3] = target: Mitogen-activated protein kinase kinase kinase 11 (Homo sapiens) (UniProt Q16584); test: Inhibition of MLK3 Lys2 labeling site in human Huh-7 cells at 1 uM by KiNativ Profiling analysis relative to control; type: cell-based
[4] = target: Serine/threonine-protein kinase WNK4 (Homo sapiens) (UniProt Q96J92); test: Inhibition of Wnk4 ACT labeling site in human Huh-7 cells at 1 uM by KiNativ Profiling analysis relative to control; type: cell-based
Ephrin type-A receptor 2 = Ephrin type-A receptor 2 (Homo sapiens, UniProt P29317); test: Inhibition of EphA2 ACT labeling site in human A-375 cells at 5 uM by KiNativ Profiling analysis relative to control; type: cell-based
[5] = system: Epidermal growth factor receptor (Homo sapiens), P00533 [UNDEFINED MUTATION]; test: Inhibition of EGFR E746-A750del mutant (unknown origin) at 10 uM by Ambit Kinomescan binding assay relative to control
[6] = system: Epidermal growth factor receptor (Homo sapiens), P00533 [UNDEFINED MUTATION]; test: Inhibition of EGFR S752-I759del mutant (unknown origin) at 10 uM by Ambit Kinomescan binding assay relative to control
[7] = target: Glycogen synthase kinase-3 beta (Homo sapiens) (UniProt P49841); test: Inhibition of GSK3B K2 labeling site in human Huh-7 cells at 1 uM by KiNativ Profiling analysis relative to control; type: cell-based
[8] = target: T1, Mitogen-activated protein kinase kinase kinase 5 (Homo sapiens) (UniProt Q99683); test: Inhibition of MAP3K5 Lys1 labeling site harbouring IAIKEIPER in human A-375 cells at 0.05 uM by KiNativ Profiling analysis relative to control; type: cell-based
T1 sequence (whole entry): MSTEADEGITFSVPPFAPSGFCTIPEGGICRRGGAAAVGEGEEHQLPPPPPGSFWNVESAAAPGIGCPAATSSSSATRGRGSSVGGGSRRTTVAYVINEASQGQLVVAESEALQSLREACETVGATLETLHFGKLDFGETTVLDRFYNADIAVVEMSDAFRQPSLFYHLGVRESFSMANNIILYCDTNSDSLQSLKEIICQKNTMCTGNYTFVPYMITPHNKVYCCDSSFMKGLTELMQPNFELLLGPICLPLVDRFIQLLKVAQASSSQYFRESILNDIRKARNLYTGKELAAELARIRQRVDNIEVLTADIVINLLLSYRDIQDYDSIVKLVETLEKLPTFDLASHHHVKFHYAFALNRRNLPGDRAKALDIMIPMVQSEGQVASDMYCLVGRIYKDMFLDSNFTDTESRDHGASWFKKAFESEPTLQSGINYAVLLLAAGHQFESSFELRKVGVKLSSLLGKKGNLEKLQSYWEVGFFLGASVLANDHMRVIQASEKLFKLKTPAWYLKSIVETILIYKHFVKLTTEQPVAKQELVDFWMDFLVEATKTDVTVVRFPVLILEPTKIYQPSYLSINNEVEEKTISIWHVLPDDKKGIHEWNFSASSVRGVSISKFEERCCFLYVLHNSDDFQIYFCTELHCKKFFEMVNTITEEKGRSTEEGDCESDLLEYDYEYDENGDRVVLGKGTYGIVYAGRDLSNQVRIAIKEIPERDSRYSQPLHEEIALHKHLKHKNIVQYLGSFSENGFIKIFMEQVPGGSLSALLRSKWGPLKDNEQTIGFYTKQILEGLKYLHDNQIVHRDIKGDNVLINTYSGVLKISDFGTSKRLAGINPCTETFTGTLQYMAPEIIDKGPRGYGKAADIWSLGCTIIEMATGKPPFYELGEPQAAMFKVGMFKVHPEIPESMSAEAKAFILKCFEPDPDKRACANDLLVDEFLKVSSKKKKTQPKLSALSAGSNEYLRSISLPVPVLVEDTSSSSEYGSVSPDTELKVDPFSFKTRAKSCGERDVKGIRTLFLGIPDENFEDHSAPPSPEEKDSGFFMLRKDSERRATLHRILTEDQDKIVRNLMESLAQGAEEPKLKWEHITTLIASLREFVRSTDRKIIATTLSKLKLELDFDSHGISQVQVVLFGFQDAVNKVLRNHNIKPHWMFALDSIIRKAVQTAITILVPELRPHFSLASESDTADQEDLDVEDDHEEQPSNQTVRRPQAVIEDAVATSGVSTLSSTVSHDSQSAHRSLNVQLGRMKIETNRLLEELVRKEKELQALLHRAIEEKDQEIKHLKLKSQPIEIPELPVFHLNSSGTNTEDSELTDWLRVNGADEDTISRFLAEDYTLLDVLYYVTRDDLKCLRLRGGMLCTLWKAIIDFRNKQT

[9] = target: T2, Aurora kinase C (Homo sapiens) (UniProt Q9UQB9); test: Inhibition of AURKC (unknown origin) at 10 uM by Ambit Kinomescan binding assay
T2 sequence (whole entry): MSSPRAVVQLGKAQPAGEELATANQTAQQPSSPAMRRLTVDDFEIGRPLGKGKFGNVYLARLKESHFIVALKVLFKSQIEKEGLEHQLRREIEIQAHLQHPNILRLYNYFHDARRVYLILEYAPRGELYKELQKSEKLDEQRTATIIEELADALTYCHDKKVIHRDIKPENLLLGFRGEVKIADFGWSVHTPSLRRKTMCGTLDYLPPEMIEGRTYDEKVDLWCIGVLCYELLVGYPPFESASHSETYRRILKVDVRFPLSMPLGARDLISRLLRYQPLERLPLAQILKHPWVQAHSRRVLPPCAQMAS

[10] = system: Phosphatidylinositol 4,5-bisphosphate 3-kinase catalytic subunit alpha isoform (Homo sapiens), P42336 [H1047Y]; test: Inhibition of PIK3CA H1047Y mutant (unknown origin) at 1 uM by Ambit Kinomescan binding assay relative to control
[11] = target: Platelet-derived growth factor receptor beta (Homo sapiens) (UniProt P09619); test: Inhibition of PDGFRB (unknown origin) at 1 uM by Ambit Kinomescan binding assay relative to control
[12] = target: Glycogen synthase kinase-3 alpha (Homo sapiens) (UniProt P49840); test: Inhibition of GSK3A Lys2 labeling site in human A-375 cells at 0.5 uM by KiNativ Profiling analysis relative to control; type: cell-based
[13] = target: AP2-associated protein kinase 1 (Homo sapiens) (UniProt Q2M2I8); test: Inhibition of AAK1 (unknown origin) at 1 uM by Ambit Kinomescan binding assay relative to control

Chain of Epidermal growth factor receptor (Homo sapiens), P00533 [UNDEFINED MUTATION] (P00533 whole entry, looked up, stated change not applied): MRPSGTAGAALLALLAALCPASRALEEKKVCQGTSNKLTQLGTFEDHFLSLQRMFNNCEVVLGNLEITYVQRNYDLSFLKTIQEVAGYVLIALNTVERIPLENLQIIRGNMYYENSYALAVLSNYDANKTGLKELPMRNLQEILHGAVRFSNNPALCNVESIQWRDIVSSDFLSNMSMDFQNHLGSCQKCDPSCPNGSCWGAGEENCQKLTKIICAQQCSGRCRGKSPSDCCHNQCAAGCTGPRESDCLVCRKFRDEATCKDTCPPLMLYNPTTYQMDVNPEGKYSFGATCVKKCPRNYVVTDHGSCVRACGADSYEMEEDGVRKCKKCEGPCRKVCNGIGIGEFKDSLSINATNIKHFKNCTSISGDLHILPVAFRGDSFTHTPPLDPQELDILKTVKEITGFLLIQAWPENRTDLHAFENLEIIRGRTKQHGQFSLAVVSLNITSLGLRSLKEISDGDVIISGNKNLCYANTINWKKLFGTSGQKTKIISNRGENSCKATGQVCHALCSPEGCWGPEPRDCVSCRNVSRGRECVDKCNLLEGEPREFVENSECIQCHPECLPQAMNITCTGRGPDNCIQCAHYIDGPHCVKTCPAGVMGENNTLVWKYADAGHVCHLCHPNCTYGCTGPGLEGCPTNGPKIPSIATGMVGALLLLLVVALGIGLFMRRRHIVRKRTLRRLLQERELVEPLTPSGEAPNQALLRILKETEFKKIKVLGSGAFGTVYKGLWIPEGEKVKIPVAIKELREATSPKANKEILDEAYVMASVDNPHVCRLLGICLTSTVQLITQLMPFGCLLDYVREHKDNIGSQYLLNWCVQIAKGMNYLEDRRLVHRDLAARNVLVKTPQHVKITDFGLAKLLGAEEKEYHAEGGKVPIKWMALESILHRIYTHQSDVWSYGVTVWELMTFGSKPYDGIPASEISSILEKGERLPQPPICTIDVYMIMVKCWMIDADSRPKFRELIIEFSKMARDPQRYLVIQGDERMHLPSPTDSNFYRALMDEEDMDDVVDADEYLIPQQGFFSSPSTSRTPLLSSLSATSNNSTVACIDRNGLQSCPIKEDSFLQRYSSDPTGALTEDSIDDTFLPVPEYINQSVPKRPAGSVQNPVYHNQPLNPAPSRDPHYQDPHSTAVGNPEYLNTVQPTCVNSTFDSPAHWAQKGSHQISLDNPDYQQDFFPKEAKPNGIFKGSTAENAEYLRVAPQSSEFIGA
Chain of Platelet-derived growth factor receptor beta (Homo sapiens) (P09619 whole entry): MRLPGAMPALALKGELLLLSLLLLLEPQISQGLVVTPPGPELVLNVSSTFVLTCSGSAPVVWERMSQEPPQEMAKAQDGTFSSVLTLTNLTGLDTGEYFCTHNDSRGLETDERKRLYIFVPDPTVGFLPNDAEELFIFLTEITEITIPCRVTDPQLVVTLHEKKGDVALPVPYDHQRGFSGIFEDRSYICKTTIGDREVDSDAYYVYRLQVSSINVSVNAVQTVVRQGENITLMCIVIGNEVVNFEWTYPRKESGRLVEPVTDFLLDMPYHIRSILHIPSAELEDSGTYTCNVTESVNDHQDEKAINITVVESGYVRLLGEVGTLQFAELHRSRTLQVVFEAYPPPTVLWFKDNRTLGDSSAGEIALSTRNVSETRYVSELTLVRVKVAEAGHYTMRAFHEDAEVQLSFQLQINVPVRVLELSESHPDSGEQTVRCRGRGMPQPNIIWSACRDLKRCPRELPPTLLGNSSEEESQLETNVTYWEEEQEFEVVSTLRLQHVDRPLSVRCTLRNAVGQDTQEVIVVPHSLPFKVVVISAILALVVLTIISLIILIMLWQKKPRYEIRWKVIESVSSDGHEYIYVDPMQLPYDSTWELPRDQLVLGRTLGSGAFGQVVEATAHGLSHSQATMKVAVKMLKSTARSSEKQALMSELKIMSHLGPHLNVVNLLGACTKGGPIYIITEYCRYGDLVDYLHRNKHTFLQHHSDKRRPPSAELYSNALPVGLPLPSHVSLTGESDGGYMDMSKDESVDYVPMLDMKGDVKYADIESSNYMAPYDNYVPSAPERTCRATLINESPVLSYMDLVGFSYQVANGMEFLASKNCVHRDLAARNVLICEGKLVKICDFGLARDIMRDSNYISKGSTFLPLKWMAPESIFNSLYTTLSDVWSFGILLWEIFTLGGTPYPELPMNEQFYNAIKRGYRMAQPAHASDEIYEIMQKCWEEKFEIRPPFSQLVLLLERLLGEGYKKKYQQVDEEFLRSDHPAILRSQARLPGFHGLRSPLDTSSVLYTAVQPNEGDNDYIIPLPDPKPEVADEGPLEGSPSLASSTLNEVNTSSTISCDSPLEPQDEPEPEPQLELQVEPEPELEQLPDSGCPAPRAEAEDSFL
Chain of Glycogen synthase kinase-3 beta (Homo sapiens) (P49841 whole entry, looked up): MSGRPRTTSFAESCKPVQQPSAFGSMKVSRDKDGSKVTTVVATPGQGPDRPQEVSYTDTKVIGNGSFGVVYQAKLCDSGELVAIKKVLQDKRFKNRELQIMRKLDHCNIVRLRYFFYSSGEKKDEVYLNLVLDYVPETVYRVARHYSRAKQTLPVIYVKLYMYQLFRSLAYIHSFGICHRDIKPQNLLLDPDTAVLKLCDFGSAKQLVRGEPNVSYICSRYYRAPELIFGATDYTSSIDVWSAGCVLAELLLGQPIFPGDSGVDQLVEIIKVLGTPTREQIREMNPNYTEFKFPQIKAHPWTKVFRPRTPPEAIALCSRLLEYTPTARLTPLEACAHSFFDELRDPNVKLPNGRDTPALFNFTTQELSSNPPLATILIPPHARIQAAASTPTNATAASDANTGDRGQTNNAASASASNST
Chain of Phosphatidylinositol 4,5-bisphosphate 3-kinase catalytic subunit beta isoform (Homo sapiens) (P42338 whole entry, looked up, canonical isoform): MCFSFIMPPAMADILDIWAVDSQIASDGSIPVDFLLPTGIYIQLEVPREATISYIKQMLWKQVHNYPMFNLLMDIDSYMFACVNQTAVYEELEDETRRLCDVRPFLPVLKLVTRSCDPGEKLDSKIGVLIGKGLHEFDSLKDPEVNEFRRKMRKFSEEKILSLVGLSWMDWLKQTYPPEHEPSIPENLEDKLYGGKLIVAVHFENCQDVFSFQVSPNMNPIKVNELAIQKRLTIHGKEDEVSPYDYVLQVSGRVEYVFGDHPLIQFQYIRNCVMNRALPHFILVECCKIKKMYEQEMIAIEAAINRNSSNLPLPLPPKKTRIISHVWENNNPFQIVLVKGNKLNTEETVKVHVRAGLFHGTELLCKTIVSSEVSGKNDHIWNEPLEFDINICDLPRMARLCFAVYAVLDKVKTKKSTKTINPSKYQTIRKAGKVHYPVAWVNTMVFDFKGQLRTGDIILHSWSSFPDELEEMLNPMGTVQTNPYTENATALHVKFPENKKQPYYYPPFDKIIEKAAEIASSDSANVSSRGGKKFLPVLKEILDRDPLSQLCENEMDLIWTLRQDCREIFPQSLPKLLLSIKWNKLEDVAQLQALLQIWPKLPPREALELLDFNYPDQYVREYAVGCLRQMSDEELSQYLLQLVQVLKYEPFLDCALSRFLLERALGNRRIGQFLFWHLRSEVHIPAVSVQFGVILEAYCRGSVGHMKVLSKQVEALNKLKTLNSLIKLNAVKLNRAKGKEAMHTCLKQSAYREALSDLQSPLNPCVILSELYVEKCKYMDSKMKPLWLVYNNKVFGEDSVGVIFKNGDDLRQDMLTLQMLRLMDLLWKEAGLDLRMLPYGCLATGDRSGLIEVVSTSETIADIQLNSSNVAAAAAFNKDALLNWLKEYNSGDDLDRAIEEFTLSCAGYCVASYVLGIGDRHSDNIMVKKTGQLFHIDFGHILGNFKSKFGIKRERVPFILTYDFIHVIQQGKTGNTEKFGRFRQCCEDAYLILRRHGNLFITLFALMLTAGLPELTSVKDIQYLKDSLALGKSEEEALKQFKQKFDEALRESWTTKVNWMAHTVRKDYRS
Chain of Serine/threonine-protein kinase WNK4 (Homo sapiens) (Q96J92 whole entry): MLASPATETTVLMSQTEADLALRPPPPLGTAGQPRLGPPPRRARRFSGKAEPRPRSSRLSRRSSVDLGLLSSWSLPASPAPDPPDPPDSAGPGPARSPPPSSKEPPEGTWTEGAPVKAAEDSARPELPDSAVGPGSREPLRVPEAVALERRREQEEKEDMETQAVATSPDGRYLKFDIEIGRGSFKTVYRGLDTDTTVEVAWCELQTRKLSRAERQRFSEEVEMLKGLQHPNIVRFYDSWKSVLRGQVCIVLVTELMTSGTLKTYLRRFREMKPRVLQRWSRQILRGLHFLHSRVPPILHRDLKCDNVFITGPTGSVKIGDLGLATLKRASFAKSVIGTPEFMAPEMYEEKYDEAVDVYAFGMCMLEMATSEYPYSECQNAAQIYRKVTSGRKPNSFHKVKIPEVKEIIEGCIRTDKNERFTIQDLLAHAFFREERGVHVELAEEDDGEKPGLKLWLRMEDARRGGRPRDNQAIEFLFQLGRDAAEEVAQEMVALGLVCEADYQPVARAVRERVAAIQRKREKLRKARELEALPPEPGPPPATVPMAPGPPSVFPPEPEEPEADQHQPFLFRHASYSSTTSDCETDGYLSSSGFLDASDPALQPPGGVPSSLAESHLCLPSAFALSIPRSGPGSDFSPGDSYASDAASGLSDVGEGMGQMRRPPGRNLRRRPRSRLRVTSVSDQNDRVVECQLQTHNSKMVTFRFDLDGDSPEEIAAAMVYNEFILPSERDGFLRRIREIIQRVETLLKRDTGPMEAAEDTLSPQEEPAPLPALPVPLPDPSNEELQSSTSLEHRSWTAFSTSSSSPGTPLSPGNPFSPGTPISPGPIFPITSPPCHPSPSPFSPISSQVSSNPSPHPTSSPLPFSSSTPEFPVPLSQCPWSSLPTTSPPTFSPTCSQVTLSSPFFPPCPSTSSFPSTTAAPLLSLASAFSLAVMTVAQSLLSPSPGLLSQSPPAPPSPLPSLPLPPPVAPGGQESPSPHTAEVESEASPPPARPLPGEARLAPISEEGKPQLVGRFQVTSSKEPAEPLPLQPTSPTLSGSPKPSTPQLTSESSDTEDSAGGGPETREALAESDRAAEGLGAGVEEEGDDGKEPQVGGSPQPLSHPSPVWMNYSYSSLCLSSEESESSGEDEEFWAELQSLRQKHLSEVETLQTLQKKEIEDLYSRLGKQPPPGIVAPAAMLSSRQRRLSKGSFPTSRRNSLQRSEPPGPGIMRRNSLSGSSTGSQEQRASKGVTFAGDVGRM

With `CNc1cc(Oc2cc(C(=O)Nc3cc(N4CCN(C)CC4)cc(C(F)(F)F)c3)ccc2C)ncn1` the inhibition [1] was 14%, the inhibition [2] was -7.5% and the inhibition [3] was 15%. For the same molecule, the inhibition [4] was 21.6%.
In the case of `CCN1CCN(Cc2ccc(NC(=O)c3ccc(C)c(Oc4ccnc5[nH]ccc45)c3)cc2C(F)(F)F)CC1`, the inhibition (Ephrin type-A receptor 2) is reported as 57.7%, the inhibition [5] is reported as 8.4% and the inhibition [6] is reported as 4.6%. The inhibition [7] was 2.9%, the inhibition [8] was 10.8% and the inhibition [9] was “inactive”.
With `CCN1CCN(Cc2ccc(NC(=O)c3ccc(C)c(/C=C/c4cnc5[nH]ccc5c4OC)c3)cc2C(F)(F)F)CC1` the inhibition [10] was 71%, the inhibition [11] was 0.1% and the inhibition [12] was 11.4%. For the same molecule, the inhibition [13] was 67%.
